± gives the standard deviation of the averaged measurements.
How the values were obtained:
Assay in all cases: level (log10 ratio to DMSO vehicle control); higher = higher biomarker level / cell amount than vehicle control
Settings in all cases: in DMSO
[1] = compound: FC(F)C(F)(F)COCC1CO1 [((2,2,3,3-Tetrafluoropropoxy)methyl)oxirane]
Description: (§1)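 BioMAP Diversity Plus panel of 12 human primary cell co-culture systems (3C, 4H, LPS, SAg, BT, BF4T, BE3C, CASM3C, HDF3CGF, KF3CT, MyoF, Mphg). Compounds were added 1 h before stimulation and left for 24 h (MyoF 48 h; BT 72 h for soluble read-outs or 6 d for IgG). Biomarkers were read by ELISA, cytotoxicity by SRB, PBMC viability and proliferation by Alamar Blue. Each well value was divided by the mean of 8 DMSO control wells on the same plate and log10 transformed; duplicate blinded samples were tested at 4 concentrations.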

[2] = compound: OCCC(F)(F)C(F)(F)C(F)(F)C(F)(F)C(F)(F)C(F)(F)F [6:2 Fluorotelomer alcohol]
Description: as §1

[3] = compound: O=C(O)C(F)(F)C(F)(F)C(F)(F)C(F)(F)C(F)(F)C(F)(F)C(F)(F)C(F)F [9-H-Perfluorononanoic acid]
Description: as §1

[4] = compound: O=C(O)C(F)(F)OC(F)(F)C(F)(F)OC(F)(F)F [Perfluoro-3,6-dioxaheptanoic acid]
Description: as §1

[5] = compound: O=C(O)C(F)(F)C(F)(F)C(F)(F)C(F)(F)C(F)(F)C(F)(F)C(F)(F)C(F)(F)C(F)(F)F [Perfluorodecanoic acid]
Description: as §1

[6] = compound: NCC(F)(F)C(F)(F)C(F)(F)C(F)(F)C(F)(F)C(F)(F)C(F)(F)F [1H,1H-Perfluorooctylamine]
Description: as §1

[7] = compound: NC(=O)C(F)(F)C(F)(F)C(F)(F)F [Heptafluorobutyramide]
Description: as §1

Row | Test System | level (log10) ([1]; 6700 nM) | level (log10) ([1]; 20000 nM) | level (log10) ([1]; 60000 nM) | level (log10) ([2]; 6700 nM) | level (log10) ([2]; 20000 nM) | level (log10) ([3]; 6700 nM) | level (log10) ([3]; 20000 nM) | level (log10) ([3]; 60000 nM) | level (log10) ([4]; 6700 nM) | level (log10) ([4]; 20000 nM) | level (log10) ([4]; 60000 nM) | level (log10) ([5]; 6700 nM) | level (log10) ([5]; 20000 nM) | level (log10) ([6]; 6700 nM) | level (log10) ([6]; 20000 nM) | level (log10) ([6]; 60000 nM) | level (log10) ([7]; 6700 nM) | level (log10) ([7]; 20000 nM) | level (log10) ([7]; 60000 nM)
1 | BF4T:CD90 | -0.006 ± 0.03 | 0.004 ± 0.0057 | 0.014 ± 0.016 | -0.0035 ± 0.0021 | -0.0165 ± 0.011 | -0.0705 ± 0.021 | -0.0605 ± 0.013 | -0.0685 ± 0.015 | -0.012 ± 0.0042 | 0.001 ± 0.0099 | -0.011 ± 0.0014 | 0.003 ± 0.0042 | -0.0955 ± 0.0064 | 0.015 ± 0.021 | 0.009 ± 0.0014 | 0.0065 ± 0.012 | 0.002 ± 0.013 | -0.008 ± 0.0085 | 0.003 ± 0.0042
2 | 3C:Proliferation | -0.034 ± 0.016 | -0.0165 ± 0.00071 | -0.039 ± 0.02 | -0.0325 ± 0.066 | -0.015 ± 0.086 | -0.013 ± 0.017 | 0.004 ± 0.037 | -0.023 ± 0.031 | -0.0305 ± 0.025 | -0.031 ± 0.05 | -0.0205 ± 0.0064 | 0.0395 ± 0.032 | 0.0005 ± 0.044 | 0.004 ± 0.05 | 0.004 ± 0.047 | -0.0485 ± 0.063 | 0.006 ± 0.04 | 0.003 ± 0.051 | -0.006 ± 0.045
3 | BT:sTNF-alpha | 0.0865 ± 0.025 | 0.0615 ± 0.023 | -0.0195 ± 0.0021 | 0.071 ± 0.028 | -0.0445 ± 0.015 | 0.032 ± 0.069 | 0.076 ± 0.014 | 0.032 ± 0.04 | 0.0935 ± 0.056 | 0.0375 ± 0.17 | 0.0755 ± 0.036 | 0.0625 ± 0.047 | 0.018 ± 0.0099 | 0.0435 ± 0.1 | 0.057 ± 0.023 | -0.0375 ± 0.076 | 0.0705 ± 0.096 | -0.057 ± 0.025 | -0.0225 ± 0.0035
4 | BF4T:CCL2/MCP-1 | -0.0155 ± 0.019 | -0.0095 ± 0.013 | 0.011 ± 0.044 | 0.024 ± 0.033 | 0.02 ± 0.014 | -0.164 ± 0.011 | -0.19 ± 0.0057 | -0.122 ± 0.036 | -0.0235 ± 0.0021 | 0.002 ± 0.0071 | -0.0255 ± 0.023 | -0.043 ± 0.03 | -0.484 ± 0.11 | 0.005 ± 0.02 | -0.013 ± 0.0071 | -0.009 ± 0.033 | 0.008 ± 0.058 | -0.011 ± 0.04 | 0.014 ± 0.047
5 | BT:PBMC Cytotoxicity | 0.0145 ± 0.0021 | -0.011 ± 0.0085 | -0.0135 ± 0.005 | -0.0185 ± 0.026 | -0.035 ± 0.0071 | -0.009 ± 0.055 | 0.0435 ± 0.025 | 0.103 | -0.011 ± 0.0099 | 0 ± 0.017 | 0.0015 ± 0.071 | 0.0195 ± 0.023 | 0.045 ± 0.045 | -0.0095 ± 0.005 | -0.0065 ± 0.005 | -0.0045 ± 0.036 | 0.014 ± 0.0099 | 0.0025 ± 0.025 | 0.0105 ± 0.013
6 | 4H:CD62P/P-selectin | 0.0275 ± 0.043 | -0.0285 ± 0.087 | -0.051 ± 0.071 | 0.0165 ± 0.012 | -0.004 ± 0.02 | 0.033 ± 0.078 | 0.0825 ± 0.0035 | 0.149 ± 0.014 | -0.0245 ± 0.061 | 0.0025 ± 0.0092 | -0.0185 ± 0.018 | 0.087 ± 0.0071 | 0.093 ± 0.033 | 0.0025 ± 0.019 | -0.028 ± 0.021 | -0.0525 ± 0.047 | 0.002 ± 0.0099 | 0.049 ± 0.034 | 0.015 ± 0.02
7 | BT:sIL-17A | 0.0715 ± 0.032 | -0.008 ± 0.064 | -0.115 ± 0.03 | 0.0375 ± 0.015 | -0.0005 ± 0.11 | 0.0095 ± 0.087 | -0.02 ± 0.024 | -0.126 ± 0.0099 | -0.0275 ± 0.093 | -0.102 ± 0.26 | -0.155 ± 0.16 | -0.0525 ± 0.0092 | -0.0075 ± 0.17 | 0.0455 ± 0.064 | -0.035 ± 0.038 | -0.184 ± 0.0071 | -0.0055 ± 0.22 | -0.177 ± 0.22 | 0.058 ± 0.082
8 | BE3C:CXCL9/MIG | 0 ± 0.0042 | -0.0115 ± 0.0092 | 0.003 ± 0.02 | 0.01 ± 0.0057 | 0.001 ± 0.0057 | -0.0255 ± 0.005 | -0.0285 ± 0.005 | -0.02 ± 0.0099 | -0.016 ± 0.0014 | -0.003 ± 0.021 | 0.0025 ± 0.0035 | -0.003 ± 0.0042 | -0.715 ± 0.9 | -0.0095 ± 0.011 | 0.0035 ± 0.022 | 0.0005 ± 0.0021 | 0.002 ± 0.0014 | 0.0015 ± 0.0092 | -0.006 ± 0.0028
9 | 3C:CXCL9/MIG | 0.0045 ± 0.013 | -0.0065 ± 0.016 | -0.0035 ± 0.0078 | 0.0045 ± 0.005 | -0.0145 ± 0.0035 | -0.013 ± 0.0071 | 0.0095 ± 0.00071 | 0.0045 ± 0.0021 | -0.012 ± 0.0042 | -0.0005 ± 0.019 | 0.0065 ± 0.005 | 0.002 | 0.0005 ± 0.0064 | 0.0025 ± 0.0021 | -0.021 ± 0.0042 | -0.0205 ± 0.005 | -0.004 ± 0.016 | -0.0115 ± 0.0064 | -0.0065 ± 0.0078
10 | SAg:CD62E/E-Selectin | 0.0075 ± 0.018 | -0.002 ± 0.023 | 0.009 ± 0.047 | -0.0015 ± 0.0092 | 0.002 ± 0.027 | -0.015 ± 0.013 | -0.0075 ± 0.013 | 0.065 ± 0.031 | -0.0015 ± 0.0021 | 0.001 ± 0.0042 | 0.021 ± 0.0057 | 0.0005 ± 0.015 | 0.0165 ± 0.023 | -0.0135 ± 0.028 | -0.0055 ± 0.039 | 0 ± 0.011 | 0.0035 ± 0.023 | -0.008 ± 0.047 | -0.0065 ± 0.022
11 | SAg:CD40 | -0.0095 ± 0.018 | -0.009 ± 0.0057 | -0.0015 ± 0.0078 | -0.003 ± 0.0085 | 0.0005 ± 0.0021 | -0.0265 ± 0.012 | -0.0275 ± 0.016 | -0.059 ± 0.02 | -0.0425 ± 0.088 | -0.0475 ± 0.022 | -0.063 ± 0.093 | -0.0095 ± 0.021 | -0.0305 ± 0.012 | 0.001 ± 0.02 | -0.0115 ± 0.011 | -0.002 ± 0.011 | -0.031 ± 0.042 | -0.039 ± 0.042 | -0.034 ± 0.068
12 | SAg:PBMC Cytotoxicity | 0.031 ± 0.021 | -0.006 | 0.0205 ± 0.023 | 0.0025 ± 0.005 | 0.023 ± 0.028 | 0.007 ± 0.023 | 0.045 ± 0.0099 | 0.0765 ± 0.013 | -0.0035 ± 0.029 | 0.002 ± 0.0042 | 0.013 ± 0.0028 | 0.032 ± 0.0028 | 0.0625 ± 0.061 | 0.032 ± 0.025 | 0.018 ± 0.013 | -0.129 ± 0.27 | 0.001 ± 0.014 | -0.0125 ± 0.021 | 0.019 ± 0.0099
13 | 4H:VEGFR2 | 0.0095 ± 0.04 | 0.0065 ± 0.033 | -0.0085 ± 0.026 | -0.058 ± 0.024 | -0.072 ± 0.078 | 0.0105 ± 0.037 | 0.001 ± 0.027 | 0.051 ± 0.0099 | -0.035 ± 0.0099 | -0.009 ± 0.048 | -0.013 ± 0.0071 | -0.007 ± 0.017 | -0.01 ± 0.02 | 0.0225 ± 0.015 | -0.012 ± 0.0042 | -0.017 ± 0.0085 | 0.018 ± 0.024 | 0.01 | 0.0075 ± 0.029
14 | BT:B cell Proliferation | -0.021 ± 0.02 | -0.014 ± 0.0042 | 0.0105 ± 0.0092 | 0.022 ± 0.0057 | -0.01 ± 0.014 | 0.0245 ± 0.0021 | 0.0495 ± 0.00071 | 0.108 ± 0.0028 | 0.015 ± 0.0028 | 0.031 ± 0.048 | 0.0535 ± 0.042 | 0.0135 ± 0.04 | 0.0395 ± 0.03 | 0.0105 ± 0.025 | 0.0195 ± 0.016 | 0.039 ± 0.023 | 0.0055 ± 0.018 | -0.02 ± 0.025 | -0.003 ± 0.03
15 | BT:sIL-6 | 0.054 ± 0.051 | 0.0155 ± 0.0064 | -0.0365 ± 0.005 | 0.0115 ± 0.032 | -0.038 ± 0.028 | -0.0315 ± 0.0064 | 0.06 ± 0.064 | -0.0215 ± 0.079 | 0.021 ± 0.059 | -0.009 ± 0.059 | -0.0235 ± 0.064 | -0.029 ± 0.071 | 0.077 ± 0.058 | 0.041 ± 0.025 | 0.02 ± 0.05 | -0.1305 ± 0.00071 | 0.0565 ± 0.0078 | -0.013 ± 0.0071 | -0.0215 ± 0.046

Source: the supplement of paper PMC10331698
